Key:
L-selectin-Ig = biological target: T1, L-selectin-Ig (Homo sapiens, UniProt P14151); test: Binding inhibition assay (ELISA), biotinylated versican to L-selectin-Ig, various concentrations; conditions: dose-dependent, FIG. 2 panel A
T1 construct: purchased R & D Systems Inc
Method: (§1) Inhibition assay of binding between versican and each of L-selectin, P-selectin and CD44 was performed as follows. First, each well on a 96 well flat bottom microtiter plate (Coster EIA/RIA plate No. 3690) was coated with L-selectin-Ig (3 μg/ml), P-selectin-Ig (4 μg/ml) or CD44-Ig (0.25 μg/ml) by a conventional procedure. […] The plate was incubated at room temperature for 2 hours. Thereafter, the plate was washed with the buffer A, and enzyme-linked immunosorbent assay was performed in the same manner as described in Kawashima, H. et al. [J. Biol. Chem., 275, 35448-35456 (2000)]. Binding was determined by measuring absorbance at 620 nm using alkaline phosphatase-conjugated streptavidin and Blue Phos™ substrate.

P-selectin-Ig = test: Binding inhibition assay (ELISA), biotinylated versican to P-selectin-Ig, various concentrations; conditions: dose-dependent, FIG. 2 panel B
Method: as §1

monomeric P-selectin [1] = biological target: T2, monomeric P-selectin (Homo sapiens, UniProt P16109); test: BIAcore surface plasmon resonance, immobilized glycosaminoglycan vs monomeric P-selectin; format: binding; conditions: monomeric P-selectin
T2 construct: purchased Genzyme-Techne
T2 sequence (P16109 42-771 limits assumed): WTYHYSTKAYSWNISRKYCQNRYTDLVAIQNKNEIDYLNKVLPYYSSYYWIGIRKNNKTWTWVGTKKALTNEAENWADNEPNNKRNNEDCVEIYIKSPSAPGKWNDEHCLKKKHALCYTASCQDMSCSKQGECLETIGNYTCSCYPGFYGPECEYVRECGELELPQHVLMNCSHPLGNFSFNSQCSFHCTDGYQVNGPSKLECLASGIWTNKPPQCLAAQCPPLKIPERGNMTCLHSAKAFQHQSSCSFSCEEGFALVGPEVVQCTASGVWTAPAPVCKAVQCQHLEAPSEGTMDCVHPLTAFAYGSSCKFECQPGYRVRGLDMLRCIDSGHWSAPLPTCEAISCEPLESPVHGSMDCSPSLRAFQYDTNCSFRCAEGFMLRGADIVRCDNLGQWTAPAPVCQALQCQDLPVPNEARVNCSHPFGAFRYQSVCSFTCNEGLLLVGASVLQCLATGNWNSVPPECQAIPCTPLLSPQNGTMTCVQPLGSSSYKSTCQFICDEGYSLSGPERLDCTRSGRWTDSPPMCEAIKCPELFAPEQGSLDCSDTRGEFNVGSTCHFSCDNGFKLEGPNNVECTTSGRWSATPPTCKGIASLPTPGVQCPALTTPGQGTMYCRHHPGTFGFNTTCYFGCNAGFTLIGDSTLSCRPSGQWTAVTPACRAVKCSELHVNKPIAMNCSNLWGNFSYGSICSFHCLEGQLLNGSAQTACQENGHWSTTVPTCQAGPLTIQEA
Method: (§2) Affinity kinetics of the interaction between various CS/DS chains and each of L-selectin, P-selectin, CD44 and chemokine were examined by surface plasmon resonance using BIAcore™ biosensor [manufactured by BIAcore AB].
(§3) All experiments were performed at 25° C. At stages of washing and dissociation, buffer C (20 mM HEPES-NaOH, 0.15M NaCl, 1 mM CaCl2, 1 mM MgCl2, pH6.8) was used as a running buffer.
(§4) First, about 1.8 to 2.0 kiloresonance unit (1 kiloresonance unit=1 ng/mm^2) of streptavidin were covalently immobilized onto B1 sensor chip via a primary amine group using an amine coupling kit [manufactured by Amercham-Bioscience] according to the instruction provided by the manufacturer. The remaining activated groups were blocked with 150 μl of 1M ethanolamine-HCl (pH8.5). Then, each glycosaminoglycan which had been biotinylated at a reducing end was injected to a sensor tip surface by using EZ-link™ biotin-LC-hydrazide [manufactured by Pierce] so as to obtain about 150 resonance unit of an immobilization level, according to the method of Sadir et al. [J. Biol. Chem., 276, 8288-8296 (2001); all teachings of which are hereby incorporated by reference].
(§5) Binding assay was performed by injecting continuously each of various concentrations of secondary lymphoid tissue chemokine, γ-interferon inducible protein-10, stromal cell-derived factor-1β, monomeric L-selectin [manufactured by Genzyme-Techne], monomeric P-selectin [manufactured by Genzyme-Techne] and monomeric CD44, to a glycosaminoglycan-coupled sensor tip at a flow rate of 30 μl/min for 0 to 90 seconds, and then injecting a running buffer thereto. A response in resonance unit was recorded as a function of a time.
(§6) A sensor tip surface was regenerated with 300 μl of 1 M NaCl when chemokine or CD44 was used, or regenerated with 300 μl of 1 M NaCl, and additional 100 μl of 50 mM EDTA (pH8.0), when selectin was used. As a result of regeneration of a sensor tip surface, a remarkable change in a baseline was not observed.
(§7) An affinity kinetic parameter was determined by BIAevaluation 3.0 software [manufactured by Pharmacia Biosensor] using a single site binding model. […] In FIG. 6 and Table 3, SLC denotes secondary lymphoid tissue chemokin, IP-10 denotes γ-interferon inducible protein-10, SDF-1β denotes stromal cell-derived factor-1β, CS E denotes chondroitin sulfate E, and CS A denotes chondroitin sulfate A. In addition, in Table 3, Kd value for the interaction between monomeric CD44 and chondroitin sulfate E is a value calculated from a binding amount at equilibrium, and Kd value of the interaction between CD44 and hyaluronic acid is a value calculated using CD44-Ig.

CD44-Ig [2] = test: ELISA, biotinylated versican binding to CD44-Ig in presence of glycosaminoglycan; parameters: species or system human; conditions: 100 μg/ml glycosaminoglycan; FIG. 5
Method: A well of a 96 well flat bottom microtiter plate was coated with BSA (5 μg/ml), anti-versican monoclonal antibody 2B1 (5 μg/ml), CD44-Ig (7 μg/ml), L-selectin-Ig (3 μg/ml), P-selectin-Ig (3 μg/ml) or chemokine (1 μg/ml), and then blocked with a phosphate buffered physiological saline containing 3% by weight of BSA. As the above chemokine, secondary lymphoid tissue chemokine, γ-interferon inducible protein-10, platelet factor 4, stromal cell-derived factor-1β [manufactured by Pepro Tech] and stromal cell-derived factor-1α [manufactured by Pepro Tech] were used.
Thereafter, the plate was washed with the buffer A, and enzyme-linked immunosorbent assay was performed in the same manner as that of the previous report [Kawashima, H. et al., J. Biol. Chem., 275, 35448-35456 (2000)]. Binding was determined by measuring absorbance at 620 nm using alkaline phosphatase-conjugated streptavidin and Blue Phos™ substrate. In FIG. 5, expression of an abscissa axis is the same as that of FIG. 4.

[3] = biological target: γ-interferon inducible protein-10 (Homo sapiens, UniProt P02778); test: BIAcore surface plasmon resonance, immobilized glycosaminoglycan vs IP-10; format: binding
Method: as §2, §3, §4, §5, §6, §7

monomeric CD44 = biological target: T3, monomeric CD44 (Homo sapiens, UniProt P16070); test: BIAcore surface plasmon resonance, immobilized glycosaminoglycan vs monomeric CD44; format: binding; conditions: CD44 monomeric; GAG immobilized; 25° C.
T3 construct: codons of amino acids positions 172 to 178 of human CD44; Myc-His (from vector pcDNA 3.1/Myc-His(+) B) (C); made in house; host or cells: 293T cells, secreted into conditioned medium and purified on anti-CD44 BRIC 235 Sepharose
Method: Human-derived CD44 cDNA was prepared by PCR using a sense primer (SEQ ID NO: 1):
Thereafter, the conditioned medium was subjected to immunoaffinity chromatography with anti-CD44 monoclonal antibody BRIC 235-coupled CNBr-activated Sepharose 4B, to obtain monomeric CD44. The resulting soluble CD44 was subjected to SDS-PAGE and silver staining. As a result, the purity of the resulting soluble CD44 was more than 95%.
as §2, §3, §4, §5, §6, §7

monomeric L-selectin = biological target: T4, monomeric L-selectin (Homo sapiens, UniProt P14151); test: BIAcore surface plasmon resonance, immobilized glycosaminoglycan vs monomeric L-selectin; format: binding; conditions: monomeric L-selectin
T4 construct: purchased Genzyme-Techne
T4 sequence (P14151 39-332 limits assumed): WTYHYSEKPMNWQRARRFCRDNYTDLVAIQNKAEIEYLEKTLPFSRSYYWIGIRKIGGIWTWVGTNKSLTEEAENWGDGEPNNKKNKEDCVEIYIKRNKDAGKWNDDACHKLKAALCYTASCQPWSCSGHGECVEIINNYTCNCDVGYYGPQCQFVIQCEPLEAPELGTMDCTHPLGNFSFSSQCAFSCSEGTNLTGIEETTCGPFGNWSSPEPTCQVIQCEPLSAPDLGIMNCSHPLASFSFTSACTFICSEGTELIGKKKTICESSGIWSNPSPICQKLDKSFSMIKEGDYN
Method: as §2, §3, §4, §5, §6, §7

[4] = biological target: T5, stromal cell-derived factor-1β (Homo sapiens, UniProt P48061); test: BIAcore surface plasmon resonance, immobilized glycosaminoglycan vs SDF-1β; format: binding
T5 construct: purchased Pepro Tech
Method: as §2, §3, §4, §5, §6, §7

[5] = tested on: secondary lymphoid tissue chemokine; test: BIAcore surface plasmon resonance, immobilized glycosaminoglycan vs SLC; format: binding
Method: as §2, §3, §4, §5, §6, §7

CD44-Ig [6] = test: BIAcore surface plasmon resonance, hyaluronic acid vs CD44-Ig; parameters: species or system human; conditions: bivalent analyte binding model
Method: Then, using the resulting CD44, human CD44-immunoglobulin (Ig) was prepared according to the method described in Toyama-Sorimachi, N. [J. Biol. Chem., 270, 7437-7444, (1995); all teachings of which are hereby incorporated by reference].
as §2, §3
First, about 1.8 to 2.0 kiloresonance unit (1 kiloresonance unit=1 ng/mm^2) of streptavidin were covalently immobilized onto B1 sensor chip via a primary amine group using an amine coupling kit [manufactured by Amercham-Bioscience] according to the instruction provided by the manufacturer. The remaining activated groups were blocked with 150 μl of 1M ethanolamine-HCl (pH8.5). […]
Binding assay was performed by injecting continuously each of various concentrations of secondary lymphoid tissue chemokine, γ-interferon inducible protein-10, stromal cell-derived factor-1β, monomeric L-selectin [manufactured by Genzyme-Techne], monomeric P-selectin [manufactured by Genzyme-Techne] and monomeric CD44, to a glycosaminoglycan-coupled sensor tip at a flow rate of 30 μl/min for 0 to 90 seconds, and then injecting a running buffer thereto. A response in resonance unit was recorded as a function of a time. […]
In FIG. 6 and Table 3, SLC denotes secondary lymphoid tissue chemokin, IP-10 denotes γ-interferon inducible protein-10, SDF-1β denotes stromal cell-derived factor-1β, CS E denotes chondroitin sulfate E, and CS A denotes chondroitin sulfate A. In addition, in Table 3, Kd value for the interaction between monomeric CD44 and chondroitin sulfate E is a value calculated from a binding amount at equilibrium, and Kd value of the interaction between CD44 and hyaluronic acid is a value calculated using CD44-Ig.

monomeric P-selectin [7] = biological target: T2, monomeric P-selectin; conditions: cited from earlier work

Chain of CD44-Ig (P16070 21-178 limits assumed): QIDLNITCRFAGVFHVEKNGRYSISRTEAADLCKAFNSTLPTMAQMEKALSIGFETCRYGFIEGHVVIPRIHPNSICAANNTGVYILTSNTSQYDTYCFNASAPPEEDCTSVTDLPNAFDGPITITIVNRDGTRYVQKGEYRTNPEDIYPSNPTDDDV
T3 sequence (P16070 21-178 limits assumed): as above
T1 sequence (P14151 with tags, fused parts or gaps limits assumed): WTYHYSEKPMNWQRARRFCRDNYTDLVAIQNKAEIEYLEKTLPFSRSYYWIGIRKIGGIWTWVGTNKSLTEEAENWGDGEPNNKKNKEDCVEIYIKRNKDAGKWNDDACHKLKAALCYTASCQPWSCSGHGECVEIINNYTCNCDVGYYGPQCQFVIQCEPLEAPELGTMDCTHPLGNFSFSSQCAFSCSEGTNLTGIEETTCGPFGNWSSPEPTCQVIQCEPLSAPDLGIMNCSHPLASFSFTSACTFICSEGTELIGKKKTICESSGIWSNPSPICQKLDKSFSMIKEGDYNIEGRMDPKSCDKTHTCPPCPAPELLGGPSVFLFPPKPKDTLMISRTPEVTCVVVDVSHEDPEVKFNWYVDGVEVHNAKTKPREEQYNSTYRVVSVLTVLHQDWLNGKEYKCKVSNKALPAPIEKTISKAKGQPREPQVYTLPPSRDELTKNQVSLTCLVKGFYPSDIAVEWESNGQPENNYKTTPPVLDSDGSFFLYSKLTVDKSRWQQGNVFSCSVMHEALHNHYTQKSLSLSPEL
T5 sequence (P48061 22-93): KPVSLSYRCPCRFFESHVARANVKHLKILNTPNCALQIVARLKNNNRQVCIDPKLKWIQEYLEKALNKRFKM
Chain of γ-interferon inducible protein-10 (P02778 22-98): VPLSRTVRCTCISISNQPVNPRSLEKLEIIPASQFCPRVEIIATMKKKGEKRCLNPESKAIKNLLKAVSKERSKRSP

In the case of dermatan sulfate [DS], the “inhibition of binding between biotinylated versican and L-selectin-Ig” value (L-selectin-Ig) is reported as “not inhibited” and the “inhibition of binding between biotinylated versican and P-selectin-Ig” value (P-selectin-Ig) is reported as “not inhibited”.

In the case of chondroitin, the “interaction with immobilized glycosaminoglycan (sensorgram)” value (“interaction” below) (monomeric P-selectin [1]) is reported as “did not interact”, the “inhibition of binding between biotinylated versican and CD44-Ig” value (CD44-Ig [2]) is reported as “inhibited” and the “interaction” value [3] is reported as “did not interact”. It also gave a Kd (monomeric CD44) of 129000 nM, a koff (monomeric CD44) of 0.0649 s⁻¹ and a kon (monomeric CD44) of 503 M⁻¹ s⁻¹. For the same molecule, the “interaction” value (monomeric L-selectin) was “did not interact”, the “inhibition of binding between biotinylated versican and L-selectin-Ig” value (L-selectin-Ig) was “not inhibited” and the “inhibition of binding between biotinylated versican and P-selectin-Ig” value (P-selectin-Ig) was “not inhibited”. The “interaction” value [4] was “did not interact” and the “interaction” value [5] was “did not interact”.

hyaluronic acid [HA] gave a koff (CD44-Ig [6]; CD44-Ig) of 0.0543 s⁻¹, a kon (CD44-Ig [6]; CD44-Ig) of 26100 M⁻¹ s⁻¹ and a Kd (CD44-Ig [6]; determined using CD44-Ig) of 2080 nM.

B1: P-selectin glycoprotein ligand-1: known ligand of P-selectin (protein, UniProt Q14242 42-412, looked up)
P-selectin glycoprotein …: QATEYEYLDYDFLPETEPPEMLRNSTDTTPLTGPGTPESTTVEPAARRSTGLDAGGAVTELTTELANMGNLSTDSAAMEIQTTQPAATEAQTTQPVPTEAQTTPLAATEAQTTRLTATEAQTTPLAATEAQTTPPAATEAQTTQPTGLEAQTTAPAAMEAQTTAPAAMEAQTTPPAAMEAQTTQTTAMEAQTTAPEATEAQTTQPTATEAQTTPLAAMEALSTEPSATEALSMEPTTKRGLFIPFSVSSVTHKGIPMAASNLSVNYPVGAPDHISVKQCLLAILILALVATIFFVCTVVLAVRLSRKGHMYPVRNYSPTEMVCISSLLPDGGEGPSATANGGLSKAKSPGLTPEPREDREGDDLTLHSFLP
In the case of B1, the Kd (monomeric P-selectin [7]) is given as ~300 nM, the association rate (monomeric P-selectin [7]) is given as 4.4e+06 M⁻¹ s⁻¹ and the dissociation rate (monomeric P-selectin [7]) is given as 1.4 s⁻¹.

Reference: patent US20060211651A1, “Persulfated oligosaccharide acting on selectins and chemokine” (Taisho Pharmaceutical Co., Ltd., priority 2002, published 2006)
